Assay results: US20110262450A1, “MODULATORS OF MONOGLYCERIDE LIPASE IN THE TREATMENT OF ACNE, OF SEBORRHOEIC DERMATITIS OR OF HYPERSEBORRHOEA” (priority 2008, published 2011)

Legend:
MGLL = assay: Expression of MGLL in rat sebaceous gland (epidermal split) after topical PPARgamma agonist treatment, real-time PCR; type: in vivo; details: female FUZZY rats, topical 1% in acetone, standardized to 18S, versus carrier group
From the text: • Strain: Ico:Hsd:FUZZY-fz • Gender: female • Age: 10 weeks Number per batch: 40 (8 animals per group) Treatment: Route of administration: topical • Compound/batch: PPARgamma agonists: • A: 5-{4-[2-(methylpyridin-2-ylamino)ethoxy]-benzyl}thiazolidine-2,4-dione • B: (2-methoxyethoxymethoxy)naphthalene-2-carboxylic acid [4′-(2,4-dioxothiazolidin-5-ylmethyl)biphenyl-3-ylmethyl]methylamide or rosiglitazone • C: (S)-2-ethoxy-3-{4-[6-(3-heptyl-1-methyl-ureido)pyridin-2-yl)phenyl}propionic acid • Doses: 1% • Carrier: acetone (001) • Duration 96 hours Method of evaluation: The animals are weighed at the beginning and at the end of the study. Skin biopsies are taken (6 samples of skin excised per rat) in order to analyse the expression of the genes (RNA extraction, reverse transcriptase and real-time PCR). The samples are stored overnight at 4° C. before incubation in 1M sodium bromide (NaBr) for 2 hours at 37° C. After incubation, the samples are separated into epidermis or dermis. The epidermal samples are stored at 20° C. […] PCRs are carried out, beginning with the cDNAs originating from the epidermal splits containing sebaceous glands from control rats or rats treated with a PPARγ agonist: the mRNA is extracted using a column and quantified. The quality of the mRNAs is measured and is represented by the 18S/28S ratio. The results are standardized with respect to 18S, expressed as relative induction versus untreated animals (carrier group). The statistical analysis is obtained using internal software based on a modified Monte Carlo statistical analysis.

[1] = test system: Monoglyceride lipase (MGLL); assay: Expression of MGLL in Fuzzy rat epidermal split after topical treatment (Affymetrix transcriptome analysis); type: in vivo; details: female FUZZY rats, topical 1% once a day for 8 days, Affymetrix 1388644_at, control condition 214
Protocol: The studies are carried out in female Fuzzy rats (Hsd: Fuzzy-fz) ten weeks old at the beginning of the study. The animals are treated at a dose of 1% (PPARg agonist rosiglitazone in solution in acetone) once a day for 8 days. Two hours after the final treatment, the animals are sacrificed by euthanasia and the skin on the back is removed. After incubation in dispase, the epidermis carrying the sebaceous glands is detached from the dermis (epidermal split). After grinding of the samples, the mRNA is prepared using Qiagen columns, in accordance with the supplier's instructions. The material thus prepared is subjected to large-scale transcriptome analysis on an Affymetrix platform. The data are subsequently standardized and, after statistical analysis, the results produced are expressed in arbitrary expression units (see below) accompanied, for each piece of data, by a statistical value for presence of the transcript (presence=1; absence=0).

Compound | MGLL relative induction, 0 hours (MGLL) | MGLL relative induction, 8 hours (MGLL) | MGLL relative induction, 24 hours (MGLL) | MGLL relative induction, 48 hours (MGLL) | MGLL relative induction, 96 hours (MGLL) | Expression after treatment with 1% rosiglitazone [1]
CN(CCOc1ccc(CC2SC(=O)NC2=O)cc1)c1ccccn1 (stereo not shown) [A, 5-{4-[2-(methylpyridin-2-ylamino)ethoxy]-benzyl}thiazolidine-2,4-dione] | 1 | 2.37 | 5.06 | 3.13 | 5.76 | –
CCCCCCCNC(=O)N(C)c1cccc(-c2ccc(C[C@H](OCC)C(=O)O)cc2)n1 [C, (S)-2-ethoxy-3-{4-[6-(3-heptyl-1-methyl-ureido)pyridin-2-yl)phenyl}propionic acid] | 1 | 5.01 | 3.90 | 3.88 | 3.86 | –
CN(CCOc1ccc(CC2SC(=O)NC2=O)cc1)c1ccccn1 (stereo not shown) [rosiglitazone] | – | – | – | – | – | 576 arbitrary expression units
(2-methoxyethoxymethoxy)naphthalene-2-carboxylic acid [4′-(2,4-dioxothiazolidin-5-ylmethyl)biphenyl-3-ylmethyl]methylamide | 1 | 1.17 | 2.21 | 3.12 | 1.61 | –
